This note sets out measurements from patent US10138251B2, “Spiro[3H-indole-3,2′-pyrrolidin]-2(1H)-one compounds and derivatives as MDM2-P53 inhibitors” (Boehringer Ingelheim International GmbH, priority 2014, dated 2018).

Structures are written as SMILES.

The target in the assay is T1, MDM2 (Homo sapiens, UniProt Q00987).
T1 construct: 20 nM GST-MDM2 protein (aa 23-117)
The assay can be described thus: Mdm2-p53 Inhibition AlphaScreen. Type of assay: binding. To be noted: 20 nM GST-MDM2 protein (aa 23-117), 20 nM biotinylated p53 wt peptide. As for the experimental part: Mdm2-p53 Inhibition AlphaScreen
15 μL of compound in 20% DMSO (serial pre-dilutions of compound are done in 100% DMSO) is pipetted to the wells of a white OptiPlate-96 (PerkinElmer). A mix consisting of 20 nM GST-MDM2 protein (aa 23-117) and 20 nM biotinylated p53 wt peptide (encompassing aa 16-27 of wt human p53, amino acid sequence QETFSDLWKLLP-Ttds-Lys-Biotin, molecular weight 2132.56 g/mol) is prepared in assay buffer (50 mM Tris/HCl pH 7.2; 120 mM NaCl; 0.1% bovine serum albumin (BSA); 5 mM dithiothreitol (DTT); 1 mM ethylenediaminetetraacetic acid (EDTA); 0.01% Tween 20). 30 μL of the mix is added to the compound dilutions and incubated for 15 min at rt while gently shaking the plate at 300 rounds per minute (rpm). Subsequently, 15 μL of premixed AlphaLISA Glutathione Acceptor Beads and AlphaScreen Streptavidin Donor Beads from PerkinElmer (in assay buffer at a concentration of 10 μg/mL each) are added and the samples are incubated for 30 min at rt in the dark (shaking 300 rpm). Afterwards, the signal is measured in a PerkinElmer Envision HTS Multilabel Reader using the AlphaScreen protocol from PerkinElmer.
Each plate contains negative controls where biotinylated p53-peptide and GST-MDM2 are left out and replaced by assay buffer. Negative control values are entered as low basis value when using the software GraphPad Prism for calculations. Furthermore, a positive control (5% DMSO instead of test compound; with protein/peptide mix) is pipetted. Determination of IC50 values are carried out using GraphPad Prism 3.03 software (or updates thereof).
Background: In Alpha technology, singlet oxygen from a donor bead excites a nearby acceptor bead.

Usually IC50 stands for the midpoint of a concentration-inhibition curve. A higher IC50 goes with lower potency.

T1 sequence (Q00987 23-117): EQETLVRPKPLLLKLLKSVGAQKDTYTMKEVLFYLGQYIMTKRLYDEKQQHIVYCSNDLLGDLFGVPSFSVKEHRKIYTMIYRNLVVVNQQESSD

Compound `O=C(O)C[C@@H]1C[C@H]2[C@@H](N1)[C@H](c1cccc(Cl)c1)[C@]1(C(=O)Nc3cc(Cl)ccc31)N2CC1CC1` [Compound I-47] showed an IC50 of 280 nM.

Consider `O=C(O)c1ccc([C@H]2C[C@H]3[C@@H](N2)[C@H](c2cccc(Cl)c2F)[C@]2(C(=O)Nc4cc(Cl)c(F)cc42)N3CC2CC2)cc1` [Compound I-35], for which the 50% inhibitory concentration (IC50) came out at 9 nM. As for `CCOc1cccc(CN2[C@H]3CCN(CC(=O)O)[C@H]3[C@H](c3cccc(Cl)c3F)[C@]23C(=O)Nc2cc(Cl)ccc23)c1` [Compound I-70], the half-inhibitory concentration (IC50) is 2 nM. `CCOc1cccc(CN2[C@H]3CCN(CC4CC4C(=O)O)[C@H]3[C@H](c3cccc(Cl)c3F)[C@]23C(=O)Nc2cc(Cl)ccc23)c1` (stereo partly shown) [Compound I-65] registered a 50% inhibitory concentration (IC50) of 3 nM. Take `CCOc1cccc(CN2[C@H]3C[C@H](c4ccc(C(=O)O)cc4)N[C@H]3[C@H](c3cccc(Cl)c3F)[C@]23C(=O)Nc2cc(Cl)ccc23)c1` [Compound I-36]: the IC50 turned out to be 4 nM. `CCOc1cccc(CN2[C@H]3CCN(Cc4cn[nH]c4C(=O)O)[C@H]3[C@H](c3cccc(Cl)c3F)[C@]23C(=O)Nc2cc(Cl)ccc23)c1` [Compound I-73] came in with an IC50 of 29 nM.

Compound `CN(C)C(=O)CCC(=O)N1CC[C@H]2C1[C@H](c1cccc(Cl)c1F)[C@]1(C(=O)Nc3cc(Cl)ccc31)N2CC1CC1` (stereo partly shown) [Compound I-84] had a concentration for half-maximal inhibition (IC50) of 107 nM. As to `CCOc1cccc(CN2[C@@H]3CCN(CC(=O)O)[C@@H]3[C@@H](c3cccc(Cl)c3F)[C@@]23C(=O)Nc2cc(Cl)ccc23)c1` [Compound I-71], the midpoint of inhibition, the IC50, lay at 722 nM. In the case of `CCOc1cccc(CN2[C@H]3CCN(C(C)=O)C3[C@H](c3ccnc(Cl)c3F)[C@]23C(=O)Nc2cc(Cl)ccc23)c1` (stereo partly shown) [Compound I-90], the half-maximal inhibitory concentration (IC50) came to 6 nM.

On to `O=C(Cc1cccnc1)N1CC[C@H]2C1[C@H](c1cccc(Cl)c1F)[C@]1(C(=O)Nc3cc(Cl)ccc31)N2CC1CC1` (stereo partly shown) [Compound I-79], for which the midpoint of inhibition, the IC50, lay at 386 nM. In turn, `CCOc1cccc(CN2[C@H]3CCN(C(C)=O)C3[C@H](c3cccc(Cl)c3F)[C@]23C(=O)Nc2cc(Cl)ccc23)n1` (stereo partly shown) [Compound I-91] yielded an IC50 of 180 nM.

The compound `O=C(O)c1cccc([C@H]2C[C@H]3[C@@H](N2)[C@H](c2cccc(Cl)c2)[C@]2(C(=O)Nc4cc(Cl)ccc42)N3CC2CC2)c1` [Compound I-27] showed an IC50 of 32 nM. Consider `COCC(=O)N1CC[C@H]2C1[C@H](c1cccc(Cl)c1F)[C@]1(C(=O)Nc3cc(Cl)ccc31)N2CC1CC1` (stereo partly shown) [Compound I-77], for which it took 119 nM to reach half-maximal inhibition (IC50). Compound `O=C(O)c1ccc(C(=O)N2CC[C@H]3C2[C@H](c2cccc(Cl)c2F)[C@]2(C(=O)Nc4cc(Cl)ccc42)N3CC2CC2)cc1` (stereo partly shown) [Compound I-92] came in with an IC50 of 106 nM. The result for `CC(=O)Nc1ccc(C(=O)N2CC[C@H]3C2[C@H](c2cccc(Cl)c2F)[C@]2(C(=O)Nc4cc(Cl)ccc42)N3CC2CC2)cc1` (stereo partly shown) [Compound I-82] reads 389 nM; that for `CCOc1cccc(CN2[C@H]3CCN(CC(=O)O)[C@H]3[C@H](c3cccc(Cl)c3F)[C@]23C(=O)Nc2cc(Cl)ccc23)c1` [Compound I-69], 3 nM; that for `COc1cc(C(=O)O)ccc1[C@@H]1C[C@H]2[C@@H](N1)[C@H](c1cccc(Cl)c1)[C@]1(C(=O)Nc3cc(Cl)ccc31)N2CC1CC1` [Compound I-26], 173 nM. In turn, `O=C(O)CN1CC[C@H]2[C@@H]1[C@H](c1cccc(Cl)c1F)[C@]1(C(=O)Nc3cc(Cl)ccc31)N2CC1CC1` [Compound I-67] registered a concentration for half-maximal inhibition (IC50) of 40 nM. `CCOc1cccc(CN2[C@H]3C[C@H](c4ccc(C(=O)O)cc4)N[C@H]3[C@H](c3cccc(Cl)c3F)[C@]23C(=O)Nc2cc(Cl)ccc23)c1` [Compound I-38] came in with a half-maximal inhibitory concentration (IC50) of 2 nM. Compound `O=C(O)c1ccc([C@@H]2C[C@H]3[C@@H](N2)[C@H](c2cccc(Cl)c2)[C@]2(C(=O)Nc4cc(Cl)ccc42)N3CC2CC2)cc1` [Compound I-25] registered an IC50 of 49 nM.

`O=C(O)C[C@H]1C[C@H]2[C@@H](N1)[C@H](c1cccc(Cl)c1)[C@]1(C(=O)Nc3cc(Cl)ccc31)N2CC1CC1` [Compound I-46] gave an IC50 of 280 nM. `COc1cc([C@@H]2C[C@@H]3[C@H](N2)[C@@H](c2cccc(Cl)c2F)[C@@]2(C(=O)Nc4cc(Cl)ccc42)N3CC2CC2)ccc1C(=O)O` [Compound I-32]: the half-inhibitory concentration (IC50) is 373 nM.

Compound `O=C(O)c1cccc(C(=O)N2CC[C@H]3C2[C@H](c2cccc(Cl)c2F)[C@]2(C(=O)Nc4cc(Cl)ccc42)N3CC2CC2)c1` (stereo partly shown) [Compound I-93] showed a half-maximal inhibitory concentration (IC50) of 377 nM. As for `CCOc1cccc(CN2[C@H]3CCN(CC4CCC(C(=O)O)CC4)[C@H]3[C@H](c3cccc(Cl)c3F)[C@]23C(=O)Nc2cc(Cl)ccc23)c1` (stereo partly shown) [Compound I-62], the concentration for half-maximal inhibition (IC50) was 24 nM. The result for `O=C(O)C1CCC(CN2CC[C@H]3[C@@H]2[C@H](c2cccc(Cl)c2F)[C@]2(C(=O)Nc4cc(Cl)ccc42)N3CC2CC2)CC1` (stereo partly shown) [Compound I-61] reads 274 nM; that for `NC(=O)c1ccc([C@H]2C[C@H]3[C@@H](N2)[C@H](c2cccc(Cl)c2F)[C@]2(C(=O)Nc4cc(Cl)ccc42)N3CC2CC2)cc1` [Compound I-75], 16 nM. The result for `O=C(O)CN1CC[C@H]2[C@@H]1[C@H](c1cccc(Cl)c1)[C@]1(C(=O)Nc3cc(Cl)ccc31)N2CC1CC1` [Compound I-60] reads 85 nM. In turn, `CCOc1cccc(CN2[C@H]3CCN(C(C)=O)C3[C@H](c3cccc(Cl)c3F)[C@]23C(=O)Nc2cc(Cl)ccc23)c1` (stereo partly shown) [Compound I-88] yielded an IC50 of 28 nM. The result for `CCOc1cccc(CN2[C@H]3C[C@@H](c4ccc(C(=O)O)cc4)N[C@H]3[C@H](c3cccc(Cl)c3F)[C@]23C(=O)Nc2cc(Cl)ccc23)c1` [Compound I-37] reads 5 nM; that for `CCOC(=O)c1ccc([C@H]2C[C@H]3[C@@H](N2)[C@H](c2cccc(Cl)c2F)[C@]2(C(=O)Nc4cc(Cl)c(F)cc42)N3CC2CC2)cc1` [Compound I-13], 623 nM; that for `O=C(c1ncccn1)N1CC[C@H]2C1[C@H](c1cccc(Cl)c1F)[C@]1(C(=O)Nc3cc(Cl)ccc31)N2CC1CC1` (stereo partly shown) [Compound I-80], 596 nM. As for `O=C(O)c1cccc([C@@H]2C[C@H]3[C@@H](N2)[C@H](c2cccc(Cl)c2)[C@]2(C(=O)Nc4cc(Cl)ccc42)N3CC2CC2)c1` [Compound I-28], the half-inhibitory concentration (IC50) is 249 nM. The compound `CC(=O)N1CC[C@H]2C1[C@H](c1ccnc(Cl)c1F)[C@]1(C(=O)Nc3cc(Cl)ccc31)N2CC1CC1` (stereo partly shown) [Compound I-89] had an IC50 of 34 nM.

On to `O=C(O)C1CC1CN1CC[C@H]2[C@@H]1[C@H](c1cccc(Cl)c1F)[C@]1(C(=O)Nc3cc(Cl)ccc31)N2CC1CC1` (stereo partly shown) [Compound I-63], for which half-maximal inhibition (IC50) required 130 nM.

For the compound `CCOc1cccc(CN2[C@@H]3CCN(CC4CC4C(=O)O)[C@@H]3[C@@H](c3cccc(Cl)c3F)[C@@]23C(=O)Nc2cc(Cl)ccc23)c1` (stereo partly shown) [Compound I-66], the concentration for half-maximal inhibition (IC50) came to 209 nM.

In turn, `O=C(O)c1ccc([C@H]2C[C@H]3[C@@H](N2)[C@H](c2cccc(Cl)c2)[C@]2(C(=O)Nc4cc(Cl)ccc42)N3CC2CC2)cc1` [Compound I-24] gave an IC50 of 23 nM. Consider `O=C(O)c1ccc(CN2CC[C@H]3[C@@H]2[C@H](c2cccc(Cl)c2F)[C@]2(C(=O)Nc4cc(Cl)ccc42)N3CC2CC2)cc1` [Compound I-68], for which inhibition was half-maximal at 91 nM (IC50). On to `O=C(O)c1ccc([C@@H]2CC[C@H]3[C@@H](N2)[C@H](c2cccc(Cl)c2F)[C@]2(C(=O)Nc4cc(Cl)ccc42)N3CC2CC2)cc1` [Compound I-40], for which the IC50 worked out at 133 nM. On to `CC(=O)Nc1ccc(C(=O)N2CC[C@H]3C2[C@H](c2cccc(Cl)c2F)[C@]2(C(=O)Nc4cc(Cl)ccc42)N3CC2CC2)c(C)c1` (stereo partly shown) [Compound I-81], for which the midpoint of inhibition, the IC50, lay at 444 nM. The result for `CN(C)c1cccc(C(=O)N2CC[C@H]3C2[C@H](c2cccc(Cl)c2F)[C@]2(C(=O)Nc4cc(Cl)ccc42)N3CC2CC2)c1` (stereo partly shown) [Compound I-87] reads 607 nM; that for `CN(C)CC(=O)N1CC[C@H]2C1[C@H](c1cccc(Cl)c1F)[C@]1(C(=O)Nc3cc(Cl)ccc31)N2CC1CC1` (stereo partly shown) [Compound I-78], 381 nM. Compound `O=C(O)c1ccc([C@@H]2C[C@H]3[C@@H](N2)[C@H](c2cccc(Cl)c2F)[C@]2(C(=O)Nc4cc(Cl)ccc42)N3CC2CC2)cc1` [Compound I-30] had an IC50 of 41 nM. Turning to `CCOc1cccc(CN2[C@H]3CCN(CC4CC4C(N)=O)[C@H]3[C@H](c3cccc(Cl)c3F)[C@]23C(=O)Nc2cc(Cl)ccc23)c1` (stereo partly shown) [Compound I-74], the IC50 stood at 21 nM. `O=C1Nc2nc(Cl)ccc2[C@@]12[C@@H](c1cccc(Cl)c1F)[C@@H]1NCC[C@@H]1N2CC1CC1` [Compound I-23] had a 50% inhibitory concentration (IC50) of 871 nM. As for `O=C(CCO)N1CC[C@H]2C1[C@H](c1cccc(Cl)c1F)[C@]1(C(=O)Nc3cc(Cl)ccc31)N2CC1CC1` (stereo partly shown) [Compound I-83], the IC50 was determined as 102 nM. `O=C(O)c1ccc([C@H]2CC[C@H]3[C@@H](N2)[C@H](c2cccc(Cl)c2F)[C@]2(C(=O)Nc4cc(Cl)ccc42)N3CC2CC2)cc1` [Compound I-39] yielded an IC50 of 124 nM.
